PubChem BioAssay AID180 (DTP/NCI, 2004)
Several values for one entry are separate records, joined by “and”; a condition that tells them apart may be missing. Equal values may be shown once.

System: BDF1 mice, Adenocarcinoma 755 s.c., tumor weight T/C
Test: NCI In Vivo Anticancer Drug Screen. Data for tumor model Adenocarcinoma 755 (subcutaneous) in B6D2F1 (BDF1) mice
Conditions: endpoint: mean tumor weight, higher = larger tumour
Outline: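 Readout: T/C, i.e. treated-group measurement over vehicle-control measurement. Endpoint is survival or tumor size in tumor-bearing mice given compound.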

[1] = dose: 31.0 mg/kg/injection, schedule: Q01DX011 (ip), vehicle: methylcellulose (MC)

CC(C)Cn1cnc2c(Sc3c([N+](=O)[O-])ncn3C)nc(N)nc21
T/C (dose: 0.2 mg/kg/injection, schedule: Q01DX011 (ip), vehicle: methylcellulose (MC)): 71 % of control
T/C (dose: 0.39 mg/kg/injection, schedule: Q01DX011 (ip), vehicle: methylcellulose (MC)): 70 % of control
T/C (dose: 0.78 mg/kg/injection, schedule: Q01DX011 (ip), vehicle: methylcellulose (MC)): 68 % of control
T/C (dose: 3.12 mg/kg/injection, schedule: Q01DX011 (ip), vehicle: methylcellulose (MC)): 48 % of control
T/C (dose: 6.25 mg/kg/injection, schedule: Q01DX011 (ip), vehicle: methylcellulose (MC)): 22 % of control
T/C (dose: 12.5 mg/kg/injection, schedule: Q01DX011 (ip), vehicle: methylcellulose (MC)): 7 % of control
T/C (dose: 25.0 mg/kg/injection, schedule: Q01DX011 (ip), vehicle: methylcellulose (MC)): 2 % of control

CCOc1nc(N)nc2nc[nH]c12
T/C (dose: 8.0 mg/kg/injection, schedule: Q01DX011 (ip), vehicle: methylcellulose (MC)): 88 % of control
T/C (dose: 16.0 mg/kg/injection, schedule: Q01DX011 (ip), vehicle: methylcellulose (MC)): 55 % of control
T/C [1]: 59 % of control

N#CCSc1ncnc2nc[nH]c12
T/C (dose: 1.0 mg/kg/injection, schedule: Q01DX011 (im), vehicle: carboxymethylcellulose (CMC)): 63 % of control
T/C (dose: 1.0 mg/kg/injection, schedule: Q01DX011 (ip), vehicle: carboxymethylcellulose (CMC)): 54 % of control
T/C (dose: 1.0 mg/kg/injection, schedule: Q01DX011 (iv), vehicle: carboxymethylcellulose (CMC)): 79 % of control
T/C (dose: 1.0 mg/kg/injection, schedule: Q01DX011 (sc), vehicle: carboxymethylcellulose (CMC)): 53 % of control
T/C (dose: 2.0 mg/kg/injection, schedule: Q01DX011 (im), vehicle: carboxymethylcellulose (CMC)): 9 % of control
T/C (dose: 2.0 mg/kg/injection, schedule: Q01DX011 (ip), vehicle: carboxymethylcellulose (CMC)): 14 % of control
T/C (dose: 2.0 mg/kg/injection, schedule: Q01DX011 (iv), vehicle: carboxymethylcellulose (CMC)): 28 % of control
T/C (dose: 2.0 mg/kg/injection, schedule: Q01DX011 (sc), vehicle: carboxymethylcellulose (CMC)): 10 % of control
T/C (dose: 4.0 mg/kg/injection, schedule: Q01DX011 (im), vehicle: carboxymethylcellulose (CMC)): 1 % of control
T/C (dose: 4.0 mg/kg/injection, schedule: Q01DX011 (ip), vehicle: carboxymethylcellulose (CMC)): 6 % of control
T/C (dose: 8.0 mg/kg/injection, schedule: Q01DX011 (ip), vehicle: carboxymethylcellulose (CMC)): 7 % of control
T/C (dose: 8.0 mg/kg/injection, schedule: Q01DX011 (iv), vehicle: carboxymethylcellulose (CMC)): 1 % of control
T/C (dose: 16.0 mg/kg/injection, schedule: Q01DX011 (ip), vehicle: carboxymethylcellulose (CMC)): 3 % of control
T/C (dose: 50.0 mg/kg/injection, schedule: Q03DX004 (ip), vehicle: carboxymethylcellulose (CMC)): 2 % of control
T/C (dose: 64.0 mg/kg/injection, schedule: Q01DX011 (ip), vehicle: carboxymethylcellulose (CMC)): 2 % of control
T/C (dose: 100.0 mg/kg/injection, schedule: Q01DX001 (ip), vehicle: carboxymethylcellulose (CMC)): 20 % of control
T/C (dose: 100.0 mg/kg/injection, schedule: Q03DX004 (ip), vehicle: carboxymethylcellulose (CMC)): 1 % of control
T/C (dose: 100.0 mg/kg/injection, schedule: Q07DX002 (ip), vehicle: carboxymethylcellulose (CMC)): 5 % of control
T/C (dose: 200.0 mg/kg/injection, schedule: Q01DX001 (ip), vehicle: carboxymethylcellulose (CMC)): 20 % of control
T/C (dose: 200.0 mg/kg/injection, schedule: Q07DX002 (ip), vehicle: carboxymethylcellulose (CMC)): 3 % of control

CC(=O)N(C)C
T/C (dose: 125.0 mg/kg/injection, schedule: Q#A X022 (ip), vehicle: saline): 84 % of control
T/C (dose: 250.0 mg/kg/injection, schedule: Q01DX011 (ip), vehicle: saline): 93 % of control and 105 % of control
T/C (dose: 250.0 mg/kg/injection, schedule: Q01DX011 (sc), vehicle: saline): 100 % of control
T/C (dose: 250.0 mg/kg/injection, schedule: Q03DX004 (ip), vehicle: saline): 64 % of control
T/C (dose: 500.0 mg/kg/injection, schedule: Q01DX006 (iv), vehicle: saline): 99 % of control
T/C (dose: 500.0 mg/kg/injection, schedule: Q01DX011 (im), vehicle: saline): 155 % of control
T/C (dose: 500.0 mg/kg/injection, schedule: Q01DX011 (ip), vehicle: saline): 98 % of control and 77 % of control
T/C (dose: 500.0 mg/kg/injection, schedule: Q03DX004 (ip), vehicle: saline): 79 % of control
T/C (dose: 500.0 mg/kg/injection, schedule: Q#A X022 (ip), vehicle: saline): 57 % of control
T/C (dose: 750.0 mg/kg/injection, schedule: Q01DX011 (ip), vehicle: other): 28 % of control
T/C (dose: 750.0 mg/kg/injection, schedule: Q03DX004 (ip), vehicle: saline): 84 % of control
T/C (dose: 1000.0 mg/kg/injection, schedule: Q01DX001 (ip), vehicle: saline): 72 % of control and 84 % of control
T/C (dose: 1000.0 mg/kg/injection, schedule: Q01DX006 (iv), vehicle: saline): 80 % of control
T/C (dose: 1000.0 mg/kg/injection, schedule: Q01DX011 (im), vehicle: saline): 78 % of control
T/C (dose: 1000.0 mg/kg/injection, schedule: Q01DX011 (ip), vehicle: other): 16 % of control
T/C (dose: 1000.0 mg/kg/injection, schedule: Q01DX011 (sc), vehicle: saline): 66 % of control and 71 % of control
T/C (dose: 1000.0 mg/kg/injection, schedule: Q03DX004 (ip), vehicle: saline): 91 % of control
T/C (dose: 1000.0 mg/kg/injection, schedule: Q#A X022 (ip), vehicle: saline): 29 % of control
T/C (dose: 1250.0 mg/kg/injection, schedule: Q01DX011 (ip), vehicle: other): 5 % of control
T/C (dose: 1500.0 mg/kg/injection, schedule: Q03DX004 (ip), vehicle: saline): 81 % of control
T/C (dose: 2000.0 mg/kg/injection, schedule: Q01DX006 (iv), vehicle: saline): 67 % of control
T/C (dose: 2000.0 mg/kg/injection, schedule: Q01DX011 (im), vehicle: saline): 22 % of control
T/C (dose: 2000.0 mg/kg/injection, schedule: Q01DX011 (ip), vehicle: saline): 16 % of control and 17 % of control
T/C (dose: 2000.0 mg/kg/injection, schedule: Q01DX011 (oral), vehicle: saline): 48 % of control and 57 % of control
T/C (dose: 2000.0 mg/kg/injection, schedule: Q01DX011 (sc), vehicle: saline): 64 % of control
T/C (dose: 2000.0 mg/kg/injection, schedule: Q03DX004 (ip), vehicle: saline): 69 % of control
T/C (dose: 3000.0 mg/kg/injection, schedule: Q03DX004 (ip), vehicle: saline): 36 % of control
T/C (dose: 4000.0 mg/kg/injection, schedule: Q01DX011 (oral), vehicle: saline): 11 % of control

CC1CN(Cc2ccccc2)C(=S)N(c2ccccc2)C1=O (stereo not drawn)
T/C (dose: 15.0 mg/kg/injection, schedule: Q01DX011 (ip), vehicle: methylcellulose (MC)): 87 % of control
T/C [1]: 74 % of control
T/C (dose: 62.0 mg/kg/injection, schedule: Q01DX011 (ip), vehicle: methylcellulose (MC)): 96 % of control
T/C (dose: 125.0 mg/kg/injection, schedule: Q01DX011 (ip), vehicle: methylcellulose (MC)): 97 % of control
T/C (dose: 250.0 mg/kg/injection, schedule: Q01DX011 (ip), vehicle: methylcellulose (MC)): 82 % of control
